Drawing on PubChem BioAssay (NCI), this text covers TGI and GI50 for 25 compounds.

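Growth conditions: 96-well plates. Treatment: test compound, 48 hours, 5 concentrations. Analysis: linear interpolation between bracketing concentrations; unreached endpoints set to highest concentration. Here, GI50 denotes the concentration required for 50% inhibition of growth. At the TGI there is no net growth.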

Holding throughout (assay): NCI-60 cell line screen, 48 h
Assay [1] deals with HOP-92 NSCLC.
The test system of assay [2] is HCC-2998 colon.
For assay [3], the system named is U251 CNS.
Assay [4] has as its system OVCAR-8 ovarian.
Assay [5] has as its system SK-MEL-5 melanoma.
In assay [6] the test system is DLD-1 colon.
Assay [7] has as its system DMS 273 small cell lung.
Assay [8] concerns KM12 colon.
For assay [9], the system named is KM20L2 colon.
Assay [10] relates to DMS 114 small cell lung.

Turning to `CC1OC(n2cc(F)c(=O)[nH]c2=O)CCC1O` (centres undefined), the TGI in assay [1] was more than 100 µM; in assay [2], more than 100 µM; in [3] it was more than 100 µM; in assay [4] it was more than 100 µM; in [5] it was more than 56.2 µM; in [6], more than 100 µM. The TGI in [7], in assay [8] and in assay [9] was more than 100 µM each time.
Regarding `O=C1C=CC(=Nc2ccc3c(c2)C(Br)c2ccccc2-3)O1` (centres undefined), the TGI in [2], in [3], in assay [4], in assay [6] and in assay [10] was more than 100 µM in each case.
On to `COc1cc(C2c3cc4c(cc3C(NCC(O)CO)C3COC(=O)[C@H]23)OCO4)cc(OC)c1OC` (some centres undefined), for which the TGI was more than 100 µM in [2]; 0.766 µM in [3]; more than 100 µM in assay [4]; more than 100 µM in assay [6]; 0.245 µM in [10]; more than 100 µM in assay [8].
For the compound `CC1=C(C(=O)Nc2ccc([N+](=O)[O-])cc2)C(c2ccc(N(C)C)cc2)C(C(=O)Nc2ccc([N+](=O)[O-])cc2)=C(C)N1`, the TGI was determined as 47.7 µM in assay [1]; 25.8 µM in [2]; 66.5 µM in [3]; 97.9 µM in [4]; 32.1 µM in assay [5]; 30 µM in assay [6]. In addition, the TGI in assay [8] was determined as 37 µM; in assay [9] it was 43.4 µM.
On to `CC1CCC2(C(=O)O)CCC3(C)C(=CCC4C5(C)CC(O)C(O)C(C)(CO)C5C(O)CC43C)C2C1C` (centres undefined), for which the TGI in assay [1] is 46.3 µM; in assay [2], more than 100 µM; in assay [3], 45.5 µM; in assay [4], 42.6 µM; in assay [5], 87.2 µM; in assay [8], more than 100 µM.
`CC(C)CC(=O)[O-].CC(C)CC(=O)[O-].N.N.N.N.[Co+3].[O-][Cl+3]([O-])([O-])[O-]`: the GI50 in assay [1], in assay [2], in assay [3], in assay [4], in assay [5] and in assay [6] was more than 100 µM each time. Besides, the GI50 in assay [7], in [8] and in assay [9] was more than 100 µM in each case. Moreover, the TGI in [1], in assay [2], in assay [3], in [4], in assay [5] and in [6] was more than 100 µM in each case. Further, the TGI in [7], in assay [8] and in assay [9] was more than 100 µM in each case.
For the compound `CC1=C(C(=O)Nc2ccc3[nH]ncc3c2)C(c2ccc3ccccc3c2)CC(=O)N1` (centres undefined), the GI50 in assay [1] was 0.0408 µM; in [2] it was more than 25 µM; in assay [3], more than 25 µM; in assay [4] it was more than 25 µM; in assay [5], more than 19.3 µM; in assay [8], 17.8 µM. Also, the TGI in assay [1] is 10.9 µM; in assay [2], more than 25 µM; in assay [3], more than 25 µM; in [4], more than 25 µM; in assay [5], more than 25 µM; in [8] it was more than 25 µM.
`O=C1c2c(c3c4ccccc4n(CCCCCCBr)c3c3[nH]c4ccccc4c23)C(=O)N1O`: the GI50 in assay [1] is 2.22 µM; in assay [2], 2.87 µM; in [3], 3.47 µM; in assay [4], 3.11 µM; in [5], 1.48 µM; in [8], 2.59 µM. In addition, the TGI in assay [1] turned out to be 6.7 µM; in [2], 12.5 µM; in assay [3], 13.3 µM; in assay [4], 10.3 µM; in assay [5], 2.8 µM; in assay [8] it was 10.4 µM.
For the compound `COc1cnc2cc(C(=O)O)c3c([N+](=O)[O-])cccc3c2c1`, the TGI in assay [1], in assay [2], in [3], in assay [4], in assay [5] and in assay [8] was more than 100 µM throughout.
In the case of `CC1OC(O[C@H]2C[C@@H](O)[C@]3(CO)[C@H]4[C@H](O)C[C@]5(C)[C@@H](C6=CC(=O)OC6)CC[C@]5(O)[C@@H]4CC[C@]3(O)C2)C(O)C(O)C1O` (some centres undefined), the GI50 is 24.4 µM in assay [1]; 20.2 µM in assay [2]; 18.8 µM in assay [3]; 19.2 µM in assay [4]; 17.7 µM in assay [5]; 17.8 µM in [8]. Besides, the TGI was determined as 57.6 µM in [1]; 36.6 µM in [2]; 33.7 µM in assay [3]; 34.8 µM in [4]; 35.2 µM in assay [5]; 32.3 µM in assay [8].
As for `Cc1nc2cccc([N+](=O)[O-])c2c(NCCCN(C)C)c1C`, the TGI is more than 100 µM in assay [1]; more than 54.3 µM in [2]; more than 100 µM in assay [3]; more than 54.7 µM in assay [4]; more than 100 µM in assay [5]; more than 62.4 µM in assay [8].
On to `CNC(=O)OCc1c(COC(=O)NC)c(-c2ccc(Cl)c(Cl)c2)n2c1SCC2`, for which the TGI is 17.6 µM in [1]; 30 µM in [2]; 22.2 µM in assay [3]; 39.8 µM in assay [4]; 25.1 µM in assay [5]; 36.8 µM in assay [8].
In the case of `Nc1ccn(C2O[C@H](CO)[C@@H](O)[C@@H]2O)c(=O)n1` (some centres undefined), the figures for the GI50 in assay [1], in [2] and in assay [4] were 33.8 µM, 68.5 µM and 53.8 µM, respectively. For the same compound, the TGI in assay [1], in assay [2], in [3], in assay [4], in assay [5] and in assay [8] was more than 100 µM in each case.
With `CCCCC(=O)OCC1OC(n2cnc3c(=S)nc[nH]c32)C(OC(=O)CCCC)C1OC(=O)CCCC` (centres undefined), the GI50 in assay [1] is 1 µM; in assay [2] it was 0.565 µM; in [3], 13.4 µM; in [4], 3.05 µM; in [5] it was 1.76 µM; in [8], 1.48 µM. Besides, the TGI is more than 84.5 µM in [1]; more than 36.7 µM in [2]; more than 100 µM in assay [3]; more than 100 µM in assay [4]; more than 46.5 µM in assay [5]; more than 100 µM in [8].
Take `O=C1/C(=C/c2ccc(Br)cc2)C=C(c2ccccc2)N1CCc1ccccc1`: the GI50 is 0.32 µM in assay [1]; 7.52 µM in assay [2]; 0.761 µM in assay [3]; 1.04 µM in assay [4]; 3.89 µM in assay [5]; 43.6 µM in assay [8]. For the same compound, the TGI is 2.63 µM in [1]; more than 100 µM in [2]; 10.1 µM in assay [3]; 10 µM in assay [4]; 20.8 µM in [5]; more than 100 µM in [8].
Consider `CN1CCN(Cc2ccc(NC(=O)c3cncc(C#Cc4cnc(N)c5ccc(C#N)cc45)c3)cc2C(F)(F)F)CC1`, for which the GI50 in assay [1] is 0.0244 µM; in [2], 0.901 µM; in assay [3], 0.0235 µM; in assay [4], 0.141 µM; in assay [5], 0.176 µM; in [8] it was 0.005 µM. For the same compound, the TGI in assay [1] was 0.344 µM; in assay [2] it was 11.1 µM; in assay [3] it was 0.846 µM; in assay [4], 1.32 µM; in assay [5] it was 0.696 µM; in assay [8], 0.603 µM.
In the case of `CCOc1cccc(/C=N/NC(=O)c2ccccc2Nc2ccnc(C(F)(F)F)c2)c1O`, the GI50 in [1] is 0.246 µM; in [2], 0.398 µM; in assay [3], 0.375 µM; in assay [4] it was 0.449 µM; in assay [5] it was 0.5 µM; in assay [8], 0.513 µM. Further, the TGI in assay [1] was 19.7 µM; in [2], more than 44.2 µM; in assay [3] it was more than 100 µM; in [4], more than 100 µM; in [5] it was 4.91 µM; in [8], 47.7 µM.
For the compound `Cc1ccc(CS/C(=C\c2ccc([N+](=O)[O-])cc2)C(=O)c2ccc(F)cc2)cc1`, the GI50 was 14.1 µM in [1]; 2.73 µM in [2]; 1.67 µM in assay [3]; 3.42 µM in assay [4]; 2.4 µM in assay [5]; 2.16 µM in assay [8]. In addition, the TGI in assay [1] is 41.3 µM; in assay [2] it was 8.42 µM; in assay [3], 3.1 µM; in [4] it was 19.4 µM; in assay [5], 5.98 µM; in assay [8], 5.13 µM.
Turning to `COC(=O)CCCCN=Cc1c(O)c(O)c(C(C)C)c2cc(C)c(-c3c(C)cc4c(C(C)C)c(O)c(O)c(C=NCCCCC(=O)OC)c4c3O)c(O)c12`, the GI50 in [1] is 0.782 µM; in assay [2], 1.19 µM; in assay [3] it was 0.58 µM; in assay [4] it was 0.959 µM; in [5] it was 1.83 µM; in [8], 0.799 µM. Moreover, the TGI was 2.64 µM in [1]; more than 32.5 µM in assay [2]; 4.05 µM in [3]; more than 32.5 µM in assay [4]; 8.75 µM in assay [5]; more than 32.5 µM in assay [8].
In the case of `COC(=O)c1cc2c3ccccc3[nH]c2c2ncccc12`, the GI50 in assay [1] was more than 100 µM; in assay [2] it was 73.8 µM; in assay [3] it was 30.6 µM; in assay [4] it was 61.2 µM; in assay [5], 58 µM; in [8] it was 81.1 µM. Also, the TGI in assay [1], in assay [2], in [3], in assay [4], in assay [5] and in assay [8] was more than 100 µM each time.
`COc1ccc(/C(=C2\O[C@@H]([C@H]3COC(C)(C)O3)[C@H]3OC(C)(C)O[C@@H]23)c2cc(OC)c(OC)c(OC)c2)cc1O`: the GI50 in assay [1] is 5.45 µM; in assay [2], 13.2 µM; in [3], 3.84 µM; in assay [4], 5.27 µM; in assay [5], 2.69 µM; in [8] it was 3.99 µM. The TGI in assay [1] was 31.8 µM; in [2] it was more than 100 µM; in [3], 48.2 µM; in assay [4], more than 100 µM; in [5], 11.2 µM; in [8], more than 100 µM.
For the compound `O=C1CNCCCN2CCN(CCCNCC(=O)Nc3ccc(cc3)S(=O)(=O)c3ccc(cc3)NC(=O)CNCCCN3CCN(CCCNCC(=O)Nc4ccc(cc4)S(=O)(=O)c4ccc(cc4)N1)CC3)CC2`, the TGI in assay [1] is 60.6 µM; in assay [2], 42.7 µM; in assay [3] it was more than 61.8 µM; in assay [4], more than 56.9 µM; in [5] it was more than 73 µM; in assay [8] it was more than 100 µM.
On to `N#Cc1ccc(C#Cc2ccccc2C#CCCCCO)cc1`, for which the GI50 in assay [1] is 17.7 µM; in assay [2], 18.5 µM; in assay [3], 14.5 µM; in assay [4] it was 18.6 µM; in assay [5], 17.5 µM; in [8], 17.8 µM. The TGI is 34.6 µM in [1]; 33.1 µM in assay [2]; 27.5 µM in assay [3]; 35.5 µM in [4]; 31.9 µM in assay [5]; 36.2 µM in assay [8].
As to `Cc1ccc(C)c(NC(=O)CC/C(=N\NC(=O)C(=O)NN)C(C)C(=O)c2ccc(O)cc2)c1` (centres undefined), the TGI in [1], in [2], in [3], in assay [5], in assay [6] and in [7] was more than 100 µM in each case. The TGI in assay [8] and in assay [9] was more than 100 µM each time.
For `CN(C)CCNc1cc(-c2ccccc2)nc2ccccc12`, the GI50 in assay [1] was 3.21 µM; in assay [2], 10.2 µM; in [3], 3.48 µM; in assay [4] it was 4.1 µM; in [5], 10.1 µM; in [8] it was 4.87 µM. Further, the TGI is 21.3 µM in assay [1]; 25.1 µM in [2]; 11.2 µM in assay [3]; 22 µM in assay [4]; 22.4 µM in [5]; 27.4 µM in [8].
